Test results reported in ChEMBL document CHEMBL1142897, “Synthesis, characterization and antimicrobial activity of Fe(II), Zn(II), Cd(II) and Hg(II) complexes with 2,6-bis(benzimidazol-2-yl) pyridine ligand” (2007).

Legend:
[1] = test system: Pseudomonas aeruginosa; test: Antibacterial activity against Pseudomonas aeruginosa after 72 hrs by disk diffusion method; format: functional
[2] = test system: Escherichia coli; test: Antibacterial activity against Escherichia coli after 72 hrs by disk diffusion method; format: functional
[3] = test system: Listeria monocytogenes; test: Antibacterial activity against Listeria monocytogenes after 72 hrs by disk diffusion method; format: functional
[4] = test system: Klebsiella pneumoniae; test: Antibacterial activity against Klebsiella pneumoniae after 72 hrs by disk diffusion method; format: functional
[5] = test system: Micrococcus luteus; test: Antibacterial activity against Micrococcus luteus after 72 hrs by disk diffusion method; format: functional
[6] = test system: Bacillus cereus; test: Antibacterial activity against Bacillus cereus after 72 hrs by disk diffusion method; format: functional
[7] = test system: Mycolicibacterium smegmatis; test: Antibacterial activity against Mycobacterium smegmatis after 72 hrs by disk diffusion method; format: functional
[8] = test system: Staphylococcus aureus; test: Antibacterial activity against Staphylococcus aureus after 72 hrs by disk diffusion method; format: functional
[9] = test system: Proteus vulgaris; test: Antibacterial activity against Proteus vulgaris after 72 hrs by disk diffusion method; format: functional
[10] = test system: Kluyveromyces marxianus; test: Antifungal activity against Kluyveromyces fragilis after 24 hrs by disk diffusion method; format: functional
[11] = test system: Candida albicans; test: Antifungal activity against Candida albicans after 24 hrs by disk diffusion method; format: functional
[12] = test system: Debaryomyces hansenii; test: Antifungal activity against Debaryomyces hansenii after 24 hrs by disk diffusion method; format: functional
[13] = test system: Hanseniaspora guilliermondii; test: Antifungal activity against Hanseniaspora guilliermondii after 24 hrs by disk diffusion method; format: functional
[14] = test system: Rhodotorula mucilaginosa; test: Antifungal activity against Rhodotorula rubra after 24 hrs by disk diffusion method; format: functional
[15] = test system: Klebsiella pneumoniae; test: Antibacterial activity against Klebsiella pneumoniae after 24 hrs by dilution method; format: functional, organism-based
[16] = test system: Bacillus cereus; test: Antibacterial activity against Bacillus cereus after 24 hrs by dilution method; format: functional, organism-based
[17] = test system: Staphylococcus aureus; test: Antibacterial activity against Staphylococcus aureus after 24 hrs by dilution method; format: functional, organism-based
[18] = test system: Micrococcus luteus; test: Antibacterial activity against Micrococcus luteus after 24 hrs by dilution method; format: functional, organism-based
[19] = test system: Escherichia coli; test: Antibacterial activity against Escherichia coli after 24 hrs by dilution method; format: functional, organism-based
[20] = test system: Proteus vulgaris; test: Antibacterial activity against Proteus vulgaris after 24 hrs by dilution method; format: functional, organism-based
[21] = test system: Listeria monocytogenes; test: Antibacterial activity against Listeria monocytogenes after 24 hrs by dilution method; format: functional, organism-based
[22] = test system: Pseudomonas aeruginosa; test: Antibacterial activity against Pseudomonas aeruginosa after 24 hrs by dilution method; format: functional, organism-based
[23] = test system: Mycolicibacterium smegmatis; test: Antibacterial activity against Mycobacterium smegmatis after 24 hrs by dilution method; format: functional, organism-based
[24] = test system: Kluyveromyces marxianus; test: Antifungal activity against Kluyveromyces fragilis after 24 hrs by dilution method; format: functional, organism-based
[25] = test system: Rhodotorula mucilaginosa; test: Antifungal activity against Rhodotorula rubra after 24 hrs by dilution method; format: functional, organism-based
[26] = test system: Debaryomyces hansenii; test: Antifungal activity against Debaryomyces hansenii after 24 hrs by dilution method; format: functional, organism-based
[27] = test system: Hanseniaspora guilliermondii; test: Antifungal activity against Hanseniaspora guilliermondii after 24 hrs by dilution method; format: functional, organism-based
[28] = test system: Candida albicans; test: Antifungal activity against Candida albicans after 24 hrs by dilution method; format: functional, organism-based

Molecule	inhibition zone (IZ) [1]	inhibition zone (IZ) [2]	inhibition zone (IZ) [3]	inhibition zone (IZ) [4]	inhibition zone (IZ) [5]	inhibition zone (IZ) [6]	inhibition zone (IZ) [7]	inhibition zone (IZ) [8]	inhibition zone (IZ) [9]	inhibition zone (IZ) [10]	inhibition zone (IZ) [12]	inhibition zone (IZ) [13]	inhibition zone (IZ) [14]	also measured
CC1(C)S[C@@H]2[C@H](NC(=O)[C@H](N)c3ccccc3)C(=O)N2[C@H]1C(=O)O [AMPICILLIN]	10 mm	12 mm	12 mm	14 mm	32 mm	12 mm	21 mm	16 mm	16 mm					
CO/N=C(\C(=O)N[C@@H]1C(=O)N2C(C(=O)O)=C(COC(C)=O)CS[C@H]12)c1csc(N)n1 [CEFOTAXIME]	54 mm	10 mm	16 mm	13 mm	32 mm	14 mm	11 mm	12 mm	18 mm					
Clc1ccccc1C(c1ccccc1)(c1ccccc1)n1ccnc1 [CLOTRIMAZOLE]										18 mm	18 mm	22 mm	16 mm	inhibition zone (IZ) [11]: 15 mm
CC(=O)N1CCN(c2ccc(OCC3COC(Cn4ccnc4)(c4ccc(Cl)cc4Cl)O3)cc2)CC1 (configuration not stated) [KETOCONAZOLE]										16 mm	14 mm	24 mm	22 mm	inhibition zone (IZ) [11]: 21 mm
CC1COc2c(N3CCN(C)CC3)c(F)cc3c(=O)c(C(=O)O)cn1c23 (configuration not stated) [OFLOXACIN]	44 mm	30 mm	30 mm	28 mm	28 mm	30 mm	32 mm	24 mm	28 mm					
CC1(C)S[C@@H]2[C@H](NC(=O)Cc3ccccc3)C(=O)N2[C@H]1C(=O)O [PENICILLIN G]	8 mm	18 mm	10 mm	18 mm	36 mm	14 mm	15 mm	13 mm	10 mm					
CN(C)[C@@H]1C(O)=C(C(N)=O)C(=O)[C@@]2(O)C(O)=C3C(=O)c4c(O)cccc4[C@@](C)(O)[C@H]3C[C@@H]12 [TETRACYCLINE]	34 mm	28 mm	28 mm	30 mm	22 mm	25 mm	24 mm	26 mm	26 mm					
CN[C@H](CC(C)C)C(=O)N[C@H]1C(=O)N[C@@H](CC(N)=O)C(=O)N[C@H]2C(=O)N[C@H]3C(=O)N[C@H](C(=O)N[C@H](C(=O)O)c4cc(O)cc(O)c4-c4cc3ccc4O)[C@H](O)c3ccc(c(Cl)c3)Oc3cc2cc(c3O[C@@H]2O[C@H](CO)[C@@H](O)[C@H](O)[C@H]2O[C@H]2C[C@](C)(N)[C@H](O)[C@H](C)O2)Oc2ccc(cc2Cl)[C@H]1O [VANCOMYCIN]	10 mm	22 mm	26 mm	22 mm	34 mm	18 mm	20 mm	13 mm	20 mm					
GENTAMICIN														MIC [15]: 6.25 µg/mL; MIC [16]: 6.25 µg/mL; MIC [17]: 25 µg/mL; MIC [18]: 25 µg/mL; MIC [19]: 6.25 µg/mL; MIC [20]: 6.25 µg/mL; MIC [21]: 12.5 µg/mL; MIC [22]: 6.25 µg/mL; MIC [23]: 12.5 µg/mL
NYSTATIN										18 mm	16 mm	21 mm	18 mm	MIC [24]: 6.25 µg/mL; MIC [25]: 6.25 µg/mL; MIC [26]: 12.5 µg/mL; MIC [27]: 3.12 µg/mL; MIC [28]: 3.12 µg/mL
